From patent US20190282600A1, “COMBINATION THERAPIES TARGETING TERT DEPENDENCY FOR CANCER THERAPY” (The Wistar Institute of Anatomy and Biology, priority 2018, published 2019)

System: NRAS mutant melanoma cells
Experiment: Telomere dysfunction-induced foci (TIF) assay, IF-FISH
Type: cell-based, Human
Settings: 6-thio-dG for 7 days
Experimental: NRAS mutant melanoma cells WM3000 were transduced with TERT shRNA and treated with NAC (mM) for 7 days. […] Representative images are shown. (scale bar=10 μm). Quantification of TIF positive cells is plotted in FIG. 13b. Cells were scored as TIF positive when three or more g-H2AX foci (green) were co-localizing with telomere foci (red). Data represent average of thirteen fields imaged +/−SD.
NRAS^mut melanoma cells were treated with 6-thio-dG for 6, 12 or 18 days. As presented in FIG. 15a, relative cell number was assessed by Crystal Violet assay and calculated relative to DMSO-treated cells. Data represent average of three independent experiments +/−SD. […] NRAS^mut cells were treated with 6-thio-dG for 7 days and telomere induced foci (TIF) was determined by indirect immunofluorescence combined with fluorescence in situ hybridization (FISH) (FIG. 15c). […] Quantification of TIF assay is plotted in FIG. 15d. Cells were scored as TIF positive when four or more γ-H2AX foci (green, center row of FIG. 15c labelled as γH2AX) were co-localizing with telomere foci (red, top row of FIG. 15c labelled as Telomeres). […] P values were calculated by unpaired Student's t-test.
For TIF analysis, indirect immunofluorescence (IF) combined with fluorescence in situ hybridization (FISH) was performed as previously described with some modifications. […] TIF were quantified from at least three independent experiments.

For Nc1nc2c(ncn2[C@H]2C[C@H](O)[C@@H](CO)O2)c(=S)[nH]1 [6-thio-dG, 6-thio-2′-deoxyguanosine], the TIFs was “increased levels”.
